Reference: the supplement of paper PMC7840683

Tested on: HepaRG
Test: LDH release cytotoxicity, % of total lysis control; higher = more cytotoxic
Settings: 48 h
In short: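 Eight-point half-log series of test chemicals, the highest at 100 µM, were given in duplicate for 48 h to single-lot HepaRG cells on collagen I-coated 96-well plates in serum-free induction medium with 0.5% DMSO. A Tecan Safire read resorufin fluorescence from CytoTox-ONE as a measure of LDH in 50 µL spent medium, with 0.1% Triton X in total lysis wells. Percent cytotoxicity was normalized to on-plate vehicle and total lysis controls and averaged over the duplicates.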

COC=C(C(=O)OC)c1ccccc1Oc1cc(Oc2ccccc2C#N)ncn1 [Azoxystrobin]
Settings	LDH release cytotoxicity [%]
0.03162 µM	-1.32
0.1 µM	-1.84
0.3162278 µM	-2.03
1 µM	-2.35
3.16228 µM	-2.2
10 µM	-1.39
31.6228 µM	-1.83
100 µM	18.63

CCOC(=O)C(C)Oc1ccc(Oc2nc3ccc(Cl)cc3o2)cc1 (configuration not stated) [Fenoxaprop-ethyl]
Settings	LDH release cytotoxicity [%]
0.03162 µM	-2.02
0.1 µM	-2.51
0.3162278 µM	-2.8
1 µM	-2.59
3.16228 µM	-2.21
10 µM	-2.46
31.6228 µM	-1.44
100 µM	-1.21

CCNc1nc(Cl)nc(NC(C)C)n1 [Atrazine]
Settings	LDH release cytotoxicity [%]
0.03162 µM	-1.43
0.1 µM	-1.36
0.3162278 µM	-1.63
1 µM	-2.15
3.16228 µM	-1.57
10 µM	-1.86
31.6228 µM	-1.38
100 µM	-0.59

O=C(O)c1cccc(N(Cc2cccnc2)c2ccc(OC(F)F)c(OC(F)F)c2)c1
Settings	LDH release cytotoxicity [%]
0.03162 µM	-1.28
0.1 µM	-1.45
0.3162278 µM	-1.1
1 µM	-1.77
3.16228 µM	-1.858
10 µM	-2.03
31.6228 µM	-2.58
100 µM	-1.73

ClC1C(Cl)C(Cl)C(Cl)C(Cl)C1Cl (configuration not stated) [Lindane]
Settings	LDH release cytotoxicity [%]
0.03162 µM	-0.796
0.1 µM	-0.605
0.3162278 µM	-0.762
1 µM	-0.901
3.16228 µM	-0.128
10 µM	-0.657
31.6228 µM	0.201
100 µM	5.07

S=C1NCCN1 [Ethylene thiourea]
Settings	LDH release cytotoxicity [%]
0.03162 µM	-0.742
0.1 µM	-0.402
0.3162278 µM	-0.462
1 µM	-0.602
3.16228 µM	-0.544
10 µM	0.0401
31.6228 µM	0.537
100 µM	0.155

c1ccc2ccccc2c1 [Naphthalene]
Settings	LDH release cytotoxicity [%]
0.03162 µM	-0.307
0.1 µM	-1.13
0.3162278 µM	-0.248
1 µM	-0.532
3.16228 µM	0.237
10 µM	1.23
31.6228 µM	0.531
100 µM	2.74

COP(=S)(OC)Oc1ccc([N+](=O)[O-])cc1 [Methyl parathion]
Settings	LDH release cytotoxicity [%]
0.03162 µM	-0.787
0.1 µM	-0.971
0.3162278 µM	0.295
1 µM	-1.21
3.16228 µM	-0.845
10 µM	0.053
31.6228 µM	0.525
100 µM	1.01

C#CC(O)C(CC)CCCC (configuration not stated) [4-Ethyloct-1-yn-3-ol]
Settings	LDH release cytotoxicity [%]
0.03162 µM	-1.1
0.1 µM	-0.852
0.3162278 µM	-1.73
1 µM	-1.75
3.16228 µM	-0.91
10 µM	-1.32
31.6228 µM	-1.07
100 µM	0.266

Cc1cc2c(cc1C(F)(F)F)N(C(=O)Nc1ccc(Oc3cccnc3C)nc1)CC2
Settings	LDH release cytotoxicity [%]
0.0295673 µM	-7.63
0.0935 µM	-7.9
0.295673 µM	-7.01
0.935 µM	-8.47
2.95673 µM	-7.66
9.35 µM	-6.19
29.5673 µM	68.937
93.5 µM	72.5

c1ccc(C[n+]2cccc3ccccc32)cc1 [1-Benzylquinolinium chloride]
Settings	LDH release cytotoxicity [%]
0.0327296 µM	-1.88
0.1035 µM	-1.6
0.327296 µM	-1.47
1.035 µM	-1.94
3.27296 µM	-1.92
10.35 µM	-0.779
32.729574 µM	0.264
103.5 µM	-1.31

Oc1ccc(C(c2ccc(O)cc2)(C(F)(F)F)C(F)(F)F)cc1 [Bisphenol AF]
Settings	LDH release cytotoxicity [%]
0.03162 µM	-1.31
0.1 µM	-1.4
0.3162278 µM	-1.16
1 µM	-1.45
3.16228 µM	-0.575
10 µM	-1.57
31.6228 µM	-1.62
100 µM	83.2

CC(=O)Nc1ccc(O)cc1 [Acetaminophen]
Settings	LDH release cytotoxicity [%]
0.03162 µM	-3.14
0.1 µM	-3.633
0.3162278 µM	-2.81
1 µM	-3.06
3.16228 µM	-3.13
10 µM	-3.2
31.6228 µM	-2.512
100 µM	-1.82

Cc1cn(C2C=CC(CO)O2)c(=O)[nH]c1=O (configuration not stated) [Stavudine]
Settings	LDH release cytotoxicity [%]
0.03162 µM	-0.726
0.1 µM	-0.277
0.3162278 µM	0.0542
1 µM	0.024
3.16228 µM	-0.127
10 µM	0.3
31.6228 µM	0.433
100 µM	2.36

COC(=O)N(C(=O)N1COC2(C(=O)OC)Cc3cc(Cl)ccc3C2=N1)c1ccc(OC(F)(F)F)cc1 (configuration not stated) [Indoxacarb]
Settings	LDH release cytotoxicity [%]
0.0253 µM	-0.813
0.08 µM	0.513
0.252982 µM	-1.47
0.8 µM	-0.957
2.52982 µM	-0.16
8 µM	-0.511
25.2982 µM	0.453
80 µM	14.2

CS(=O)(=O)c1ccc(C(=O)C2C(=O)CCCC2=O)c([N+](=O)[O-])c1 [Mesotrione]
Settings	LDH release cytotoxicity [%]
0.0320971 µM	0.286
0.1015 µM	-0.676
0.320971 µM	-1.35
1.015 µM	-0.8
3.2097118 µM	-0.694
10.15 µM	-1.17
32.0971 µM	-1.09
101.5 µM	-1.76

CSc1nc(NC(C)C)nc(NC(C)C)n1 [Prometryn]
Settings	LDH release cytotoxicity [%]
0.031623 µM	1.02
0.1 µM	-3.89
0.316228 µM	-3.27
1 µM	-2.93
3.16228 µM	-2.42
10 µM	-2.73
31.6228 µM	-3.26
100 µM	-1.44

CCCCc1nc2cccnc2n1Cc1ccc(-c2ccccc2-c2nnn[nH]2)cc1
Settings	LDH release cytotoxicity [%]
0.03162 µM	-0.82
0.1 µM	-1.42
0.3162278 µM	-0.874
1 µM	-0.211
3.16228 µM	-0.956
10 µM	-0.404
31.6228 µM	-0.609
100 µM	1.6

O=S1OCC2C(CO1)C1(Cl)C(Cl)=C(Cl)C2(Cl)C1(Cl)Cl (configuration not stated) [Endosulfan]
Settings	LDH release cytotoxicity [%]
0.03162 µM	0.0956
0.1 µM	-0.361
0.3162278 µM	-0.482
1 µM	-0.273
3.16228 µM	-0.151
10 µM	0.616
31.6228 µM	-0.612
100 µM	14.5
